Reference: patent US12152019B2, “Arylalkyl pyrazole compounds as indoleamine 2,3-dioxygenase inhibitors” (Merck Sharp & Dohme LLC, priority 2018, dated 2024)

biological target: IDO1 (Homo sapiens, UniProt P14902); test: IDO1 Human Whole Blood Assay; format: cell-based; conditions: LPS and IFNγ 100 ng/mL, overnight (18 h), kynurenine by LC/MS/MS, read-out: Human Whole Blood Potency, IC50
Experimental: IDO1 Human Whole Blood Assay Compounds to be tested were serially diluted in ten 3-fold steps in DMSO starting from 10 mM. 3 μL of compound dilutions or DMSO alone were then dispensed from the dilution plate into a polypropylene 96-well assay plate containing 97 μL of RPMI using an Echo 555 acoustic liquid handler (Labcyte). LPS and IFNγ was prepared in RPMI to a 10× of final conc. (1000 ng/mL), final concentration is 100 ng/mL. […] 240 μL of blood was transferred to each of the wells of a v-bottom 96 well plate. 30 μL of compound was transferred from intermediate dilution plate, and incubated for 15 min. 30 μL from stimulants was then transferred to blood and mixed thoroughly. Plate was covered with breathable membrane and incubated at 37° C. for overnight (18 h). […] Plasma was diluted with RPMI in 1:1 ratio and proteins were precipitated out with two volume of Acetonitrile. The plates were centrifuged at 4000×G for 60 min. 20 μL of supernatant was carefully transferred to a 384 well plate contain 40 μL of 0.1% formic acid in water and analyzed by LC/MS/MS. LC/MS/MS analyses were performed using Thermo Fisher's LX4-TSQ Quantum Ultra system. This system consists of four Agilent binary high-performance liquid chromatography (HPLC) pumps and a TSQ Quantum Ultra triple quadrupole MS/MS instrument. For each sample, 5 μL were injected onto an Atlantis T3 column (2.1 mm×150 mm, 3 μm particle size) from Waters. The mobile phase gradient pumped at 0.8 mL/min was used to elute the analytes from the column at 25° C. The elution started at 0% B increasing linearly to 25% B at 6.5 min, holding at 25% for 1 min, re-equilibrating to 10 min. Mobile phase A consisted of 0.1% formic acid in water. Mobile phase B consisted of 0.1% of formic acid in acetonitrile. Data was acquired in positive mode using a HESI interface. The operational parameters for the TSQ Quantum Ultra instrument were a spray voltage of 4000 V, capillary temperature of 380° C., vaporizer temperature 400° C., shealth gas 60 arbitrary units, Aux gas 20 arbitrary units, tube lens 85 and collision gas 1.2 mTorr. SRM chromatograms of kynurenine (Q1: 209.2>Q3:94.0) and internal standard (Q1: 215.3>Q3:98.2) were collected for 90 sec. The peak area was integrated by Xcalibur Quan software. […] Compounds were titrated and IC50's were calculated by 4 parameter sigmoidal curve fitting formula.

Chain of IDO1 (P14902 whole entry): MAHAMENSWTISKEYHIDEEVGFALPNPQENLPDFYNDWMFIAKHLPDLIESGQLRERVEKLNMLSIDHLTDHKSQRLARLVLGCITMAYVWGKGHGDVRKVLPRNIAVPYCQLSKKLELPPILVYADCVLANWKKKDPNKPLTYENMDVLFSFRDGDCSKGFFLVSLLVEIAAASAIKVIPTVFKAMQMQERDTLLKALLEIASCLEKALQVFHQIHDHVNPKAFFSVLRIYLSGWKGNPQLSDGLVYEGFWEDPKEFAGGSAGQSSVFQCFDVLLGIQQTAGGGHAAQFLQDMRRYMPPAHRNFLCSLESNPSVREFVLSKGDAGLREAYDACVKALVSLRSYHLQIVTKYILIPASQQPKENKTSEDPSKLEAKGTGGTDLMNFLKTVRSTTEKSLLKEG

| Compound | IC50 [nM] |
| --- | --- |
| Cc1c(F)ccc(C2CCC(CCn3nc(C(=O)N4CCC(F)(CO)CC4)c4c3CCC4)CC2)c1C (single isomer, unassigned) [Example 52, (1-(2-(4-(4-fluoro-2,3-dimethylphenyl)cyclohexyl)ethyl)-1,4,5,6-tetrahydrocyclopenta[c]pyrazol-3-yl)(4-fluoro-4-(hydroxymethyl)piperidin-1-yl)methanone] | 448 |
| Cc1c(Cl)cccc1O[C@H]1CC[C@@H](CCn2nc(C(=O)N3C[C@@H](C)O[C@@H](C)C3)c3c2CCC3)CC1 [Example 53, (1-(2-((1s,4S)-4-(3-chloro-2-methylphenoxy)cyclohexyl)ethyl)-1,4,5,6-tetrahydrocyclopenta[c]pyrazol-3-yl)((2R,6S)-2,6-dimethylmorpholino)methanone] | 822 |
| Cc1ccc(Cl)c(O[C@H]2CC[C@@H](CCn3nc(C(=O)N4CCC(F)(CO)CC4)c4c3CCC4)CC2)c1 [Example 58, (1-(2-((1s,4s)-4-(2-chloro-5-methylphenoxy)cyclohexyl)ethyl)-1,4,5,6-tetrahydrocyclopenta[c]pyrazol-3-yl)(4-fluoro-4-(hydroxymethyl)piperidin-1-yl)methanone] | 538 |
| CC(=O)NC1CCN(C(=O)c2nn(CC[C@H]3CC[C@@H](Oc4cnc(C)nc4C)CC3)c3c2CCC3)CC1 [Example 68, N-(1-(1-(2-((1s,4s)-4-((2,4-dimethylpyrimidin-5-yl)oxy)cyclohexyl)ethyl)-1,4,5,6-tetrahydrocyclopenta[c]pyrazole-3-carbonyl)piperidin-4-yl)acetamide] | 517 |
| Cc1cccc(C2CCC(CCn3nc(C(=O)N4CCC(O)CC4)c4c3CCC4)CC2)c1C (single isomer, unassigned) [Example 96, (1-(2-(4-(2,3-dimethylphenyl)cyclohexyl)ethyl)-1,4,5,6-tetrahydrocyclopenta[c]pyrazol-3-yl)(4-hydroxypiperidin-1-yl)methanone] | 328 |

These reach a lower IC50. Values come first.

| IC50 [nM] | Compound |
| --- | --- |
| 286 | CC(=O)NC1CCN(C(=O)c2nn(CCC3CCN(c4cccc(Cl)c4C)CC3)c3c2CCCC3)CC1 [Example 20, N-[1-[1-[2-[1-(3-chloro-2-methyl-phenyl)-4-piperidyl]ethyl]-4,5,6,7-tetrahydroindazole-3-carbonyl]-4-piperidyl]acetamide] |
| 247 | CC(=O)NC1CCN(C(=O)c2nn(CCN3CCN(c4cccc(C)c4C)CC3)c3c2[C@@H]2C[C@@H]2C3)CC1 [Example 100, N-(1-((3bR,4aR)-1-(2-(4-(2,3-dimethylphenyl)piperazin-1-yl)ethyl)-3b,4,4a,5-tetrahydro-1H-cyclopropa[3.4]cyclopenta[1,2-c]pyrazole-3-carbonyl)piperidin-4-yl)acetamide] |
| 177 | Cc1c(F)ccc(C2CCC(CCn3nc(C(=O)N4CCN(C(=O)CO)CC4)c4c3CCC4)CC2)c1C (single isomer, unassigned) [Example 49, 1-(4-(1-(2-(4-(4-fluoro-2,3-dimethylphenyl)cyclohexyl)ethyl)-1,4,5,6-tetrahydrocyclopenta[c]pyrazole-3-carbonyl)piperazin-1-yl)-2-hydroxyethan-1-one] |
| 153 | CC(=O)NC1CCN(C(=O)c2nn(CC[C@H]3CC[C@@H](Oc4nccc(C)c4C#N)CC3)c3c2CCC3)CC1 [Example 66, N-(1-(1-(2-((1s,4s)-4-((3-cyano-4-methylpyridin-2-yl)oxy)cyclohexyl)ethyl)-1,4,5,6-tetrahydrocyclopenta[c]pyrazole-3-carbonyl)piperidin-4-yl)acetamide] |
| 110 | Cc1cccnc1O[C@H]1CC[C@@H](CCn2nc(C(=O)N3CC[C@H](O)[C@H](F)C3)c3c2C[C@H]2C[C@@H]32)CC1 [Example 83, [(3R,4S)-3-fluoro-4-hydroxypiperidin-1-yl] [(3bR,4aR)-1-(2-{cis-4-[(3-methylpyridin-2-yl)oxy]cyclohexyl}ethyl)-3b,4,4a,5-tetrahydro-1H-cyclopropa[3,4]cyclopenta [1,2-c]pyrazol-3-yl] methanone] |
